Source: ChEMBL document CHEMBL1201862, “PubChem BioAssay data set” (2004)
Where “and” joins values, the source holds several entries; their conditions need not be identical. Equal values may be shown once. Calls of active or inactive are those of the source.

Legend:
[1] = intracellular Trypanosoma cruzi inhibitors in host cells – cell-based, plate reader, cherry-pick samples, set 3, dose response (AID 651818); type: functional;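 also: compounds incubated with infected cells for about four days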
[2] = molecular target: T1, Histone-lysine N-methyltransferase NSD2 (Homo sapiens, UniProt O96028); type: biochemical
T1 sequence (O96028 whole entry): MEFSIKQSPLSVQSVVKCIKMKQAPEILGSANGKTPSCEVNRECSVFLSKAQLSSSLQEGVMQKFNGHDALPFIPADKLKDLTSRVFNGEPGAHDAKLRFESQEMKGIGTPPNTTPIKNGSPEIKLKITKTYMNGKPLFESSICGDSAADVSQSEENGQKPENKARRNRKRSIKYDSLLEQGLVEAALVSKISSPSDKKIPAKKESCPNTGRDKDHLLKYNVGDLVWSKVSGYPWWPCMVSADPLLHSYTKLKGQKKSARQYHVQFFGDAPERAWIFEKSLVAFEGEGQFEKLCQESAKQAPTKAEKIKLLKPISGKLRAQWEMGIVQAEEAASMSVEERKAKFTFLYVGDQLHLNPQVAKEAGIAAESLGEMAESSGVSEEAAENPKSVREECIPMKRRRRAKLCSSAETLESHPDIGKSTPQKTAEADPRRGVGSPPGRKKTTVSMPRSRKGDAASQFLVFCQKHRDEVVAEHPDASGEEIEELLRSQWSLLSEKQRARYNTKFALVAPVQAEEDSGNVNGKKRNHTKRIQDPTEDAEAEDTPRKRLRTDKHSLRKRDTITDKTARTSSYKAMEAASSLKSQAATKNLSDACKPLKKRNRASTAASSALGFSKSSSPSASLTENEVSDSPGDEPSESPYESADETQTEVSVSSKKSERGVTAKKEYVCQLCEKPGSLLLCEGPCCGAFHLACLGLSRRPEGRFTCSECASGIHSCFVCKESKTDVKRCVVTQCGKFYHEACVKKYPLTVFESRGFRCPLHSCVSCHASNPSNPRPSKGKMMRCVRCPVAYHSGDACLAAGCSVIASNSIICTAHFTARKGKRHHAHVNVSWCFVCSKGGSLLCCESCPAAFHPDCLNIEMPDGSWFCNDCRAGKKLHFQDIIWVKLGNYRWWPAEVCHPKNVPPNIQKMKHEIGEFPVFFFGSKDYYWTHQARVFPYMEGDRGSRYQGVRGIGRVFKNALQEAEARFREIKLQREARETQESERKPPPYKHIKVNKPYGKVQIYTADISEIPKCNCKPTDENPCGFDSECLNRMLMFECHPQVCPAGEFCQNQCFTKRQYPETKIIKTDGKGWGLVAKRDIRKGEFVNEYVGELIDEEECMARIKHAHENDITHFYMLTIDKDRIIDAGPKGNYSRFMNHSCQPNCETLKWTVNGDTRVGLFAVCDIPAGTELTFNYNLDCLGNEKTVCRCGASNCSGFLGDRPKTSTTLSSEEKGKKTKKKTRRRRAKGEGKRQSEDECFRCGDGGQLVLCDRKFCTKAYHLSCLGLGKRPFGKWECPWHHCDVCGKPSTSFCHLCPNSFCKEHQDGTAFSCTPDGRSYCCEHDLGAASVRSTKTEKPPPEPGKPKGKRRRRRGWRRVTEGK

[3] = molecular target: T2, Cytochrome P450 2C9 (Homo sapiens, UniProt P11712)
T2 sequence (P11712 whole entry): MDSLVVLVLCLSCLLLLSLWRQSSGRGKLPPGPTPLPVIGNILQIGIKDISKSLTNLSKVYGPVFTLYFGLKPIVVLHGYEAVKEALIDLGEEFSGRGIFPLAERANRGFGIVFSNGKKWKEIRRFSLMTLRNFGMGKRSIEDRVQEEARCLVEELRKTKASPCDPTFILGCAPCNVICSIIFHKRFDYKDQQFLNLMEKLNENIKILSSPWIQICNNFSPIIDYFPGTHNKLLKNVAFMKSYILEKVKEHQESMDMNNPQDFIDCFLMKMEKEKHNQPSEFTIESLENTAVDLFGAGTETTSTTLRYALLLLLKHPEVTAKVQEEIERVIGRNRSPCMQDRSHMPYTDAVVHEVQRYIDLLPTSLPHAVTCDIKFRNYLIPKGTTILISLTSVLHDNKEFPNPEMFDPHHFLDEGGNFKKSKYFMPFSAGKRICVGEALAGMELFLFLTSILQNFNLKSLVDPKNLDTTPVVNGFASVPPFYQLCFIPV

[4] = molecular target: T2, Cytochrome P450 2C9; remark: listed apart in the source
[5] = molecular target: Cytochrome P450 2D6 (Homo sapiens, UniProt P10635);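 also: CYP2D6 member of a cytochrome P450 panel assay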
Sequence of Cytochrome P450 2D6 (P10635 whole entry): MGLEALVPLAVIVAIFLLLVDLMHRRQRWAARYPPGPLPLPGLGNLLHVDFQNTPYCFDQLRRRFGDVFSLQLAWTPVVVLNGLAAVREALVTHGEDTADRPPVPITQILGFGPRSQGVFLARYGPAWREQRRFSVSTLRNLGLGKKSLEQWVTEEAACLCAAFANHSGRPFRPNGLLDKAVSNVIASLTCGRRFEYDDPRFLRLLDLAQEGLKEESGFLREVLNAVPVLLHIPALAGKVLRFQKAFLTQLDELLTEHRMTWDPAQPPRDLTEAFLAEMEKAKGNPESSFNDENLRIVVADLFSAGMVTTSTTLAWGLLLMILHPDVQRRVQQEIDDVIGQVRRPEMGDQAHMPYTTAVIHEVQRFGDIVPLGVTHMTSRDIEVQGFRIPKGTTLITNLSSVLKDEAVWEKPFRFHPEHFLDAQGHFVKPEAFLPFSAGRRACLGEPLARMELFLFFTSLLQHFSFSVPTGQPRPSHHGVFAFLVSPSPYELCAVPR

[6] = molecular target: T3, Cytochrome P450 1A2 (Homo sapiens, UniProt P05177);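 also: PubChem cytochrome P450 panel assay, CYP1A2 panel member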
T3 sequence (P05177 whole entry): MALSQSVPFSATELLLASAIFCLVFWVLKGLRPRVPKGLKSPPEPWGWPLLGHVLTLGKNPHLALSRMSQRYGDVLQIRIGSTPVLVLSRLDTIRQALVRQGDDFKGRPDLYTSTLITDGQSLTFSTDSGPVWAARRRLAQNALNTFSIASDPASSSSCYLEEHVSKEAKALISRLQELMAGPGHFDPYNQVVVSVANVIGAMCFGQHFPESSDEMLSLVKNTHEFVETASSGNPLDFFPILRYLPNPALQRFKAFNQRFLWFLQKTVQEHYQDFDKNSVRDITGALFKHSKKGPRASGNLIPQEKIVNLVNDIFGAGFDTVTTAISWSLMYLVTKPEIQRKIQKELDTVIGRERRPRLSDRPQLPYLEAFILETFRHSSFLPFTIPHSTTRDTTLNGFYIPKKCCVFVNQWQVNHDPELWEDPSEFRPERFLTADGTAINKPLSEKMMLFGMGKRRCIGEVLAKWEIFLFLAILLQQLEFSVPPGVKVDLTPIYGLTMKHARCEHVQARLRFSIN

[7] = HIV-1 AD8 envelope cell-cell fusion blockers – cherry-pick, dose response (AID 652062); type: functional, cell-based;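 also: luciferase signal from cell-cell fusion driven by HIV-1 clade B AD8 Env; potency is for inhibitors of fusion seen as a drop in luminescence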
[8] = molecular target: T4, Heat shock factor protein 1 (Mus musculus, UniProt P38532); test: enhancement of HSF1-driven luciferase signal – cell-based, NIH3T3, luminescence, dose retest, confirmation (AID 435004); type: functional;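 also: stress induced by proteasome inhibitor MG132 added 30 min after compound; luciferase reporter driven by HSF1 response element in NIH3T3 cells; actives raise luminescence as potentiators of the MG132 stress response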
T4 sequence (P38532 whole entry): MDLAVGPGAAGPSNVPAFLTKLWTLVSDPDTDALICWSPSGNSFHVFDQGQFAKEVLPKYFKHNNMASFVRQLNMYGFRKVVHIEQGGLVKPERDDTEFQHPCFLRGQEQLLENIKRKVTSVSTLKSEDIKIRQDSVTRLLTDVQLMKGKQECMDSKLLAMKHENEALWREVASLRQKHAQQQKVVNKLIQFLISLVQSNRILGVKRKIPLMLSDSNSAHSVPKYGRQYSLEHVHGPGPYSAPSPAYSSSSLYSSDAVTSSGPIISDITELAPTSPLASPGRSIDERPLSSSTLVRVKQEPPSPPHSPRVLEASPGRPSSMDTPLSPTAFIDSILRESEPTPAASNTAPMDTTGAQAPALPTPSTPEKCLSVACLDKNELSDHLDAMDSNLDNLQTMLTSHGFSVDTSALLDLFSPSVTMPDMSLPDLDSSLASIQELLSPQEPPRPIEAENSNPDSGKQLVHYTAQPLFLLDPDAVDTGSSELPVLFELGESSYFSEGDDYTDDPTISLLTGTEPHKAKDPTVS

[9] = test system: Vero; test: cells; type: functional; settings: Chlorocebus sabaeus
[10] = test system: Vero; test: cells; type: functional, cell-based; settings: Chlorocebus sabaeus
[11] = Luminescence Cell-Based Dose Retest to Confirm Inhibitors of Cancer Stem Cells. [Related pubchem assays (depositor defined):AID2717, AID2721]; type: functional; settings: Homo sapiens
[12] = molecular target: T5, Protein RecA (Mycobacterium tuberculosis, UniProt P9WHJ3); test: Fluorescence Cell-Free Homogeneous Dose Retest to Identify Inhibitors of RecA-Intein Splicing Activity. [Related pubchem assays (depositor defined):AID2097, AID2223, AID489010, AID492950]; type: functional
T5 sequence (P9WHJ3 whole entry): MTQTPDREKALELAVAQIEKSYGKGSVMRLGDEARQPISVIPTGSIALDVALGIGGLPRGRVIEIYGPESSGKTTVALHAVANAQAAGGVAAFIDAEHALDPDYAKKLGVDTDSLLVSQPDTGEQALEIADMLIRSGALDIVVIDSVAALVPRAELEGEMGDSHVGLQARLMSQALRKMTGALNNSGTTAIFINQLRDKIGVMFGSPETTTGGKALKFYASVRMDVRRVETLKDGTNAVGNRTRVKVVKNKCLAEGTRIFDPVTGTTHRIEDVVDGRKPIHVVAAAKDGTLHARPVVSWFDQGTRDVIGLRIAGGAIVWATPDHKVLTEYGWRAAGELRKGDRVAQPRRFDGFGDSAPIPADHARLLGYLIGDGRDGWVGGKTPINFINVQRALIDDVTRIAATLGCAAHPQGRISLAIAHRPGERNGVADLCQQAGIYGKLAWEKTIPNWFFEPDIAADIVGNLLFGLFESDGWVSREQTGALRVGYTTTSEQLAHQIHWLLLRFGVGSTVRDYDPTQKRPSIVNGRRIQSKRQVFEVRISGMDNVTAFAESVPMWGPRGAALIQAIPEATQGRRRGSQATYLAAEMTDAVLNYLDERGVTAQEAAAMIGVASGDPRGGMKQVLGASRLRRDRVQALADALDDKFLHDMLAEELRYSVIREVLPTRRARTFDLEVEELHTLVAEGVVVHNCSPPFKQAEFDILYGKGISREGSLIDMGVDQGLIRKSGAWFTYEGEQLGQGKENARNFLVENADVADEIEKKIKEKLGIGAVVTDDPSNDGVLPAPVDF

[13] = molecular target: T6, Replicative DNA helicase DnaB (Mycobacterium tuberculosis, UniProt P9WMR3); test: DnaB intein splicing inhibitors, dose response, biochemical, cell-free fluorescence (AID 449749); type: functional
T6 sequence (P9WMR3 whole entry): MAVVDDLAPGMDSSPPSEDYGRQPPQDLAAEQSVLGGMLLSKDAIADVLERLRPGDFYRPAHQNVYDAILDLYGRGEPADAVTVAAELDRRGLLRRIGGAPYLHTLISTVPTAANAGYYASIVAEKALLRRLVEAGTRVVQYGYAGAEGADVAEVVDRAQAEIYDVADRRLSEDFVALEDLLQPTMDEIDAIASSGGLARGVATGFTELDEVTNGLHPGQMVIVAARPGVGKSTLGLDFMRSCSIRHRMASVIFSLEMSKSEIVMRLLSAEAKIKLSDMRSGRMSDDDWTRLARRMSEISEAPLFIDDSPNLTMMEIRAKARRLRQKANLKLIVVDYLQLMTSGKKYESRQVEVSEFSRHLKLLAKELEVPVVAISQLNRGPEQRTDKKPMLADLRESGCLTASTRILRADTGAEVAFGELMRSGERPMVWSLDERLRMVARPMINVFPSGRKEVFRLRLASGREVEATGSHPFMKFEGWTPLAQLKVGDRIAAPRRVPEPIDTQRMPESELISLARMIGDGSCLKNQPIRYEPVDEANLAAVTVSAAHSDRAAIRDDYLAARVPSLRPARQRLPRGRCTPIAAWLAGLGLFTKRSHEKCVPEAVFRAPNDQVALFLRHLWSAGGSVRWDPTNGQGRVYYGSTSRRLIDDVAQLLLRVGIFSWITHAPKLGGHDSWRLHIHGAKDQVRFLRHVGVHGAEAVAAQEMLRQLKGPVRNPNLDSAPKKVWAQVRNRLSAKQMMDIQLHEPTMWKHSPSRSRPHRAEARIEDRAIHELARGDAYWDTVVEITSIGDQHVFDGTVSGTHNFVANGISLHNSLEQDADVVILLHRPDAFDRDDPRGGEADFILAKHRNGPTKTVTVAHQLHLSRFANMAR

[14] = molecular target: Paired box protein Pax-8 (Homo sapiens, UniProt Q06710); test: PAX8 transcriptional activity inhibition in RMG-I – RMG-I cells, luciferase, cherry-pick, dose response (AID 687027); type: functional, cell-based;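 also: luciferase reporter driven by Pax8 target thyroperoxidase promoter measured by SteadyGlo luminescence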
Sequence of Paired box protein Pax-8 (Q06710 whole entry): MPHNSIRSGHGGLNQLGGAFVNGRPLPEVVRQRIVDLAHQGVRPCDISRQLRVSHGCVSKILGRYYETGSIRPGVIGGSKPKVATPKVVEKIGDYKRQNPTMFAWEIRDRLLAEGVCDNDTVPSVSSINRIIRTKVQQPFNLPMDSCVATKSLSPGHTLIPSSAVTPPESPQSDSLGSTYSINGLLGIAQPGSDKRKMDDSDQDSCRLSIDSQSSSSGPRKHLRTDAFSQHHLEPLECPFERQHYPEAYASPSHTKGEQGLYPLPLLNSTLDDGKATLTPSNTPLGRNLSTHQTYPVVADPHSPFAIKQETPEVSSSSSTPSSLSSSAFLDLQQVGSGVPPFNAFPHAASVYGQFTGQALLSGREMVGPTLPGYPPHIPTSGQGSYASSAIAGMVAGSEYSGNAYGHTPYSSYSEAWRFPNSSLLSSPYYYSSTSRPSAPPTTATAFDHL

[15] = reduction of Shn3 3'UTR-driven luciferase in osteoblasts – cell-based, Clone20 osteoblasts, firefly luciferase, cherry-picked, dose response (AID 624132); type: functional;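 also: firefly luciferase luminescence from reporter carrying the Shn3 3'UTR in osteoblasts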
[16] = non-specific 3'UTR reporter inhibition in Clone20-Shn3RL – cell-based, Renilla luciferase, cherry-picked, counter-screen for Shn3 inhibitor project, dose response (AID 624133); type: functional
[17] = test system: HEK293; test: EBV LMP1 TES2 canonical NF-kB signalling blockers – cell-based, HEK293, luciferase, cherry-pick, dose response (AID 588343); type: functional; settings: Homo sapiens
[18] = blockers of HIV-1 envelope-mediated cell-cell fusion – cherry-pick, dose response (AID 652057); type: functional, cell-based

With Cc1ccc(S(=O)(=O)Nc2cccc3c2O[C@@H](CN(C)S(=O)(=O)c2ccc(Cl)cc2)[C@@H](C)CN([C@H](C)CO)C3=O)cc1 the AC50 [1] was 8.14 µM (active).
In the case of CCN(CC)CCCN(Cc1cc2cc(OC)c(OC)cc2nc1O)C(=O)Nc1ccccc1, the AC50 [2] is reported as > 20 µM (inactive).
With C[C@H](CO)N1C[C@H](C)[C@H](CN(C)Cc2ccc(C(=O)Nc3ccccc3N)cc2)Oc2ccc(NC(=O)Cc3ccccc3)cc2CC1=O the AC50 [1] was 2.95 µM (active).
In the case of C[C@H](CO)N1C[C@H](C)[C@@H](CN(C)Cc2ccncc2)Oc2c(NC(=O)C3CCOCC3)cccc2C1=O, the AC50 [1] is reported as 20 µM (inactive).
For C[C@@H]1CN([C@@H](C)CO)C(=O)c2cccc(NC(=O)Nc3ccc(C(F)(F)F)cc3)c2O[C@@H]1CN(C)S(=O)(=O)c1ccc(F)cc1, the AC50 [1] was 4.16 µM (active).
In the case of Cc1[nH]c2ccc(O)cc2c1CCN, the AC50 [3] is reported as 39.8 µM (inconclusive), the AC50 [4] is reported as 39.8 µM (inconclusive) and the AC50 [5] is reported as 20 µM (inconclusive) and 39.8 µM (inconclusive). For the same compound, the AC50 [6] was 31.6 µM (inconclusive) and 20 µM (inconclusive).
In the case of Cc1ccc(S(=O)(=O)N(C)c2ccc(C(=O)N3CCN(Cc4ccc5c(c4)OCO5)CC3)cc2)cc1, the AC50 [7] is reported as 14 µM (active).
With COc1ccc(/C=C\c2nc(=O)c3ccccc3o2)cc1 the EC50 [8] was 20.9 µM (active), the CC50 [9] was 16.6 µM (active) and the IC50 [10] was 19.9 µM (active).
In the case of COc1cccc(/C=C/C(=O)c2ccc(NS(=O)(=O)c3ccc(C)cc3)cc2)c1, the AC50 [11] is reported as 2.91 µM (active), the EC50 [12] is reported as 15.4 µM (active) and the CC50 [9] is reported as 20.4 µM (active). For the same compound, the AC50 [13] was 9.15 µM (active) and the IC50 [10] was 24 µM (active).
For Cc1cc(NC(=O)c2ccc3nccnc3c2)ccc1Br, the IC50 [10] was > 25 µM (active).
In the case of CC(C)(O)/C=C/C(=O)C(C)(O)C1C(O)CC2(C)C3CC=C4C(C=C(O)C(=O)C4(C)C)C3(C)C(=O)CC12C (stereo not drawn), the AC50 [14] is reported as < 0.26 µM (active), the AC50 [15] is reported as 1.83 µM (active) and the CC50 [9] is reported as 0.08 µM (active). For the same compound, the AC50 [16] was 4.47 µM (active) and the IC50 [10] was > 25 µM (active).
For C[C@@H]1CN([C@@H](C)CO)C(=O)c2cccc(NC(=O)CCCCCC(=O)Nc3ccccc3N)c2O[C@H]1CN(C)Cc1ccc2c(c1)OCO2, the AC50 [1] was 2.58 µM (active).
In the case of COc1ccc(-c2cc3c(=O)n(CC(=O)NCCCN4CCN(Cc5ccccc5)CC4)ncn3n2)cc1, the AC50 [17] is reported as 2.22 µM (active).
With O=C(C[C@@H]1CC[C@H]2[C@@H](COC[C@@H](O)CN2C(=O)c2ccc(F)cc2)O1)NC1Cc2ccccc2C1 the AC50 [7] was 3.86 µM (active) and the AC50 [18] was 1.62 µM (active).
